Results from patent US9849132B2, “Products and pharmaceutical compositions” (Intra-Cellular Therapies, Inc., priority 2014, dated 2017).

Target: PDE1 (3′,5′-cyclic-nucleotide-specific bovine brain phosphodiesterase)
Assay: Measurement of PDE1 inhibition in vitro using IMAP phosphodiesterase assay kit
Assay type: biochemical
Details: IMAP fluorescence polarization, FL-GMP substrate, bovine brain phosphodiesterase with calmodulin
Source text: Phosphodiesterase 1B (PDE1B) is a calcium/calmodulin dependent phosphodiesterase enzyme that converts cyclic guanosine monophosphate (cGMP) to 5′-guanosine monophosphate (5′-GMP). PDE1B can also convert a modified cGMP substrate, such as the fluorescent molecule cGMP-fluorescein, to the corresponding GMP-fluorescein. The generation of GMP-fluorescein from cGMP-fluorescein can be quantitated, using, for example, the IMAP (Molecular Devices, Sunnyvale, Calif.) immobilized-metal affinity particle reagent.
Briefly, the IMAP reagent binds with high affinity to the free 5′-phosphate that is found in GMP-fluorescein and not in cGMP-fluorescein. The resulting GMP-fluorescein—IMAP complex is large relative to cGMP-fluorescein. Small fluorophores that are bound up in a large, slowly tumbling, complex can be distinguished from unbound fluorophores, because the photons emitted as they fluoresce retain the same polarity as the photons used to excite the fluorescence.
In the phosphodiesterase assay, cGMP-fluorescein, which cannot be bound to IMAP, and therefore retains little fluorescence polarization, is converted to GMP-fluorescein, which, when bound to IMAP, yields a large increase in fluorescence polarization (Δmp). Inhibition of phosphodiesterase, therefore, is detected as a decrease in Δmp. […]
A decrease in GMP concentration, measured as decreased Δmp, is indicative of inhibition of PDE activity. […]

- IC50: 0.105 nM
SMILES: CN1C(=O)c2c(nn(Cc3ccc(-c4ccccn4)cc3)c2Nc2ccccc2)N2C1=N[C@@H]1CCC[C@@H]12 [Example 1, (6aR,9aS)-5,6a,7,8,9,9a-hexahydro-5-methyl-3-(phenylamino)-2-((4-Pyridin-2yl)-benzyl)-cyclopent[4,5]imidazo[1,2-a]pyrazolo[4,3-e]pyrimidin-4(2H)-one]
